PubChem BioAssay AID1963832 (Molecular Pharmacology Branch, DTP, NCI, 2024)

Tested on: 885724-159-R-J1-PDC complex spheroid viability
Test: Anticancer human tumor 885724-159-R-J1-PDC patient-derived pancreatic adenocarcinoma cell line growth inhibition [POLQ]
Conditions: for IC50: curve of first compound; for viability, T/C: stronger effect = lower value; active means viability on the fitted dose curve at most 10% of control; inactive means the rest
In short: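 Growth inhibition in 3D: complex spheroids (tumor PDC, HUVEC, MSC) treated with POLQ inhibitor combinations; where Cmax unknown, highest tested concentration 10 microM, except SN-38 at 1 microM.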

[1] = second compound 0.0316 µM, first compound 0.0316 µM
[2] = second compound 0.0316 µM, first compound 0.1 µM
[3] = second compound 0.0316 µM, first compound 0.316 µM
[4] = second compound 0.0316 µM, first compound 1 µM
[5] = second compound 0.0316 µM, first compound 3.16 µM
[6] = second compound 0.0316 µM, first compound 10 µM
[7] = second compound 0.1 µM, first compound 0.0316 µM
[8] = second compound 0.1 µM, first compound 0.1 µM
[9] = second compound 0.1 µM, first compound 0.316 µM
[10] = second compound 0.1 µM, first compound 1 µM
[11] = second compound 0.1 µM, first compound 3.16 µM
[12] = second compound 0.1 µM, first compound 10 µM
[13] = second compound 0.316 µM, first compound 0.0316 µM
[14] = second compound 0.316 µM, first compound 0.1 µM
[15] = second compound 0.316 µM, first compound 0.316 µM
[16] = second compound 0.316 µM, first compound 1 µM
[17] = second compound 0.316 µM, first compound 3.16 µM
[18] = second compound 0.316 µM, first compound 10 µM
[19] = second compound 1 µM, first compound 0.0316 µM
[20] = second compound 1 µM, first compound 0.1 µM
[21] = second compound 1 µM, first compound 0.316 µM
[22] = second compound 1 µM, first compound 1 µM
[23] = second compound 1 µM, first compound 3.16 µM
[24] = second compound 1 µM, first compound 10 µM
[25] = second compound 3.16 µM, first compound 0.0316 µM
[26] = second compound 3.16 µM, first compound 0.1 µM
[27] = second compound 3.16 µM, first compound 0.316 µM
[28] = second compound 3.16 µM, first compound 1 µM
[29] = second compound 3.16 µM, first compound 3.16 µM
[30] = second compound 3.16 µM, first compound 10 µM
[31] = second compound 10 µM, first compound 0.0316 µM
[32] = second compound 10 µM, first compound 0.1 µM
[33] = second compound 10 µM, first compound 0.316 µM
[34] = second compound 10 µM, first compound 1 µM
[35] = second compound 10 µM, first compound 3.16 µM
[36] = second compound 10 µM, first compound 10 µM
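Further: spheroids exposed to compounds for 7 days.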

O=C(Nc1ccc(O)c(NS(=O)(=O)c2ccc(F)cc2)c1)c1ccc(-c2ccccc2)cc1 + Cc1cccc(N(C)C(=O)C2C(O)CCN2c2nc(C)cc(C(F)(F)F)c2C#N)c1
inactive: viability, T/C [1] 110% | viability, T/C [2] 92.4% | viability, T/C [3] 101% | viability, T/C [4] 102% | viability, T/C [5] 106% | viability, T/C [6] 102% | viability, T/C [7] 96.6% | viability, T/C [8] 103% | viability, T/C [9] 94.2% | viability, T/C [10] 107% | viability, T/C [11] 111% | viability, T/C [12] 117% | viability, T/C [13] 102% | viability, T/C [14] 92.3% | viability, T/C [15] 98.3% | viability, T/C [16] 101% | viability, T/C [17] 118% | viability, T/C [18] 108% | viability, T/C [19] 110% | viability, T/C [20] 91.2% | viability, T/C [21] 107% | viability, T/C [22] 106% | viability, T/C [23] 112% | viability, T/C [24] 111% | viability, T/C [25] 107% | viability, T/C [26] 90.1% | viability, T/C [27] 105% | viability, T/C [28] 104% | viability, T/C [29] 115% | viability, T/C [30] 107% | viability, T/C [31] 105% | viability, T/C [32] 102% | viability, T/C [33] 104% | viability, T/C [34] 108% | viability, T/C [35] 123% | viability, T/C [36] 101%
> 10 µM: IC50 (second compound 0.0316 µM) | IC50 (second compound 0.1 µM) | IC50 (second compound 0.316 µM) | IC50 (second compound 1 µM) | IC50 (second compound 3.16 µM) | IC50 (second compound 10 µM)

C=CCn1c(=O)c2cnc(Nc3ccc(N4CCN(C)CC4)cc3)nc2n1-c1cccc(C(C)(C)O)n1 + COC1C(OC(N)=O)C(O)C(Oc2ccc3c(O)c(NC(=O)c4ccc(O)c(CC=C(C)C)c4)c(=O)oc3c2C)OC1(C)C
0.631 µM: IC50 (second compound 10 µM)
0.713 µM: IC50 (second compound 1 µM)
0.697 µM: IC50 (second compound 3.16 µM)
inactive: viability, T/C (second compound 0.0316 µM, first compound 0.00316 µM) 87.8% | viability, T/C (second compound 0.0316 µM, first compound 0.01 µM) 109% | viability, T/C [1] 90.9% | viability, T/C [2] 85.4% | viability, T/C [3] 47.5% | viability, T/C [4] 42.2% | viability, T/C (second compound 0.1 µM, first compound 0.00316 µM) 100% | viability, T/C (second compound 0.1 µM, first compound 0.01 µM) 99.7% | viability, T/C [7] 96.5% | viability, T/C [8] 86.4% | viability, T/C [9] 54.4% | viability, T/C [10] 44.5% | viability, T/C (second compound 0.316 µM, first compound 0.00316 µM) 103% | viability, T/C (second compound 0.316 µM, first compound 0.01 µM) 100% | viability, T/C [13] 93.2% | viability, T/C [14] 82.7% | viability, T/C [15] 52.7% | viability, T/C [16] 49% | viability, T/C (second compound 1 µM, first compound 0.00316 µM) 110% | viability, T/C (second compound 1 µM, first compound 0.01 µM) 93.8% | viability, T/C [19] 89.7% | viability, T/C [20] 82.6% | viability, T/C [21] 55.1% | viability, T/C [22] 46.9% | viability, T/C (second compound 3.16 µM, first compound 0.00316 µM) 100% | viability, T/C (second compound 3.16 µM, first compound 0.01 µM) 88.3% | viability, T/C [25] 90.1% | viability, T/C [26] 77.3% | viability, T/C [27] 57.4% | viability, T/C [28] 46.5% | viability, T/C (second compound 10 µM, first compound 0.00316 µM) 101% | viability, T/C (second compound 10 µM, first compound 0.01 µM) 90.2% | viability, T/C [31] 97.2% | viability, T/C [32] 74.3% | viability, T/C [33] 58.6% | viability, T/C [34] 44.8%
0.296 µM: IC50 (second compound 0.0316 µM)
0.532 µM: IC50 (second compound 0.1 µM)
0.689 µM: IC50 (second compound 0.316 µM)

CC1COCCN1c1cc(C2(S(C)(=N)=O)CC2)nc(-c2ccnc3[nH]ccc23)n1 (stereo unspecified) + Cc1cccc(N(C)C(=O)C2C(O)CCN2c2nc(C)cc(C(F)(F)F)c2C#N)c1
inactive: viability, T/C [1] 105% | viability, T/C [2] 97.3% | viability, T/C [3] 89% | viability, T/C [4] 72% | viability, T/C [5] 58% | viability, T/C [6] 51.7% | viability, T/C [7] 103% | viability, T/C [8] 94.1% | viability, T/C [9] 97.9% | viability, T/C [10] 65.4% | viability, T/C [11] 55.2% | viability, T/C [12] 53.8% | viability, T/C [13] 108% | viability, T/C [14] 102% | viability, T/C [15] 92.5% | viability, T/C [16] 72.9% | viability, T/C [17] 55.9% | viability, T/C [18] 49.7% | viability, T/C [19] 109% | viability, T/C [20] 93.6% | viability, T/C [21] 97% | viability, T/C [22] 71.8% | viability, T/C [23] 52.3% | viability, T/C [24] 47.2% | viability, T/C [25] 98.5% | viability, T/C [26] 95.6% | viability, T/C [27] 92.8% | viability, T/C [28] 73.8% | viability, T/C [29] 51.7% | viability, T/C [30] 51.3% | viability, T/C [31] 92.2% | viability, T/C [32] 97.2% | viability, T/C [33] 91.5% | viability, T/C [34] 68.2% | viability, T/C [35] 56.4% | viability, T/C [36] 50.4%
5.33 µM: IC50 (second compound 1 µM)
9.04 µM: IC50 (second compound 0.316 µM)
> 10 µM: IC50 (second compound 0.0316 µM) | IC50 (second compound 0.1 µM) | IC50 (second compound 3.16 µM) | IC50 (second compound 10 µM)
